Test results taken from patent US11712404B2 (priority 2018, dated 2023).

What was measured:
[1] = test system: cholinesterase (CE) and pseudocholinesterase (PCE); test: Neat monomer incubation with cholinesterase / pseudocholinesterase, HPLC; details: neat compound in the presence of cholinesterase
Description: (§1) Monomers were prepared to a concentration of 0.15 mM for water and CE/PCE incubations and incubated at 72 hours at 37° C.
(§2) Degradation from CE and PCE was monitored via high performance liquid chromatography (HPLC) and measured via initial and post incubation monomer area difference.
(§3) This was calculated in the decrease in absorbance area measured by HPLC at 227 nm wavelength. Degradation was further verified by the detection of methacrylic acid.

[2] = Water sorption and solubility (ISO 4049); format: physicochemical; details: for water sorption: one week in water
Description: The same samples used in the polymerization kinetics test were stored dry at room temperature for 24 hs, then used for the water sorption (WS) and solubility (SL) test, according to ISO 4049 (REF). The initial mass (M1) was recorded and the volume calculated following the equation: V=h×πr^2 where h (mm) is the sample height and r (mm) is the sample radius.
Each sample was placed in a tight-close glass vial with 5 glass beads on the bottom to ensure the whole surface of the sample was exposed to water, and then the vial was filled by 5 ml of double-distilled water and kept closed for one week. The samples were then removed from water, patted dry and weighed again (M2) and placed in a desiccator until mass stabilization (M3) was observed. Water sorption (WS) and solubility (SL) were calculated according to the equations:
[formula] and the results were converted into […], where V is the volume of the specimen. Dentin Microtensile Bond Strength
The same samples used in the polymerization kinetics were tested for water sorption and solubility, according to [25]. Briefly, the mass of the disks was determined before (m1) and after immersion in distilled water for one week (m2). The disks were then stored in a desiccator until the mass stabilized (m3), which took around one week. Water sorption (WS) and solubility (SL) were calculated using the following equations:
[formula] where V is the volume of the specimen. 2.4 Microtensile bond strength

[3] = Neat monomer incubation in water, remaining monomer by HPLC; details: neat compound incubated in water
Description: as §1, §2, §3

[4] = at 30° C. and 1 Hz; cited from earlier work
[5] = Monomer degradation in low pH environment (1H NMR); details: neat monomer, 30 days
[6] = molecular target: T1, matrix metalloproteinase 2 (MMP-2) (Homo sapiens, UniProt P08253); test: MMP-2 incubation, fluorometric assay; format: biochemical; details: 0.02 mM monomer, 24 hours at 37° C., fluorescence Ex/Em=490/525 nm
T1 sequence (P08253 110-660): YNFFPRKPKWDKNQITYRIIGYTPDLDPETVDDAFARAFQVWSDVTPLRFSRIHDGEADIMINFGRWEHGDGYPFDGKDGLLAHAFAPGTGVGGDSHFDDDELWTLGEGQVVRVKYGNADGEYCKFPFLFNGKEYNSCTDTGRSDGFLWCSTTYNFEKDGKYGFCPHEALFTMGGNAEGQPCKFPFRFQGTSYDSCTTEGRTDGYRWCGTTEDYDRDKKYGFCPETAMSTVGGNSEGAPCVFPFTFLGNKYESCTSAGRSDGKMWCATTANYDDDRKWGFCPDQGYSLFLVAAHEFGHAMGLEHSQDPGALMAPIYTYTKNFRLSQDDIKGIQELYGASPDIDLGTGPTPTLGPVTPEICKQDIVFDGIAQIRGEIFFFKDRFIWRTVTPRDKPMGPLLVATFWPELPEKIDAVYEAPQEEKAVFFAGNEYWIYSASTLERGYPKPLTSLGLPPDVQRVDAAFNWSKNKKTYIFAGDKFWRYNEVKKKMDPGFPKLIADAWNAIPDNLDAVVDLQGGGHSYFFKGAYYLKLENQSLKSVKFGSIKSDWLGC
Description: MMP-2 incubation was prepared at 0.02 mM monomer concentration and incubated at 24 hours at 37° C. and degradation from MMP was measured via a fluorometric assay utilizing a plate reader.
BB94 is a commercial, known inhibitor of MMP-2. Plate reader fluorescence was set at Ex/Em=490/525 nm. Lower fluorescence signal indicates enzyme inhibition. Initial study indicate HEMA and HEMAM inhibition of MMP-2.

For `C=C(C)C(=O)NC(CC)CO` (stereo not shown) [Monomer 2EM, N-(1-hydroxybutan-2-yl)methacrylamide], the “degraded monomers under enzymatic conditions” value (“degraded monomers” for short) [1] was 22%, the water sorption ([2]; UDMA mixtures) was 102.7 μg/mm3 and the “degradation under aqueous conditions” value [3] was “virtually no degradation”.
For `C=C(C)C(=O)OCC(O)COc1ccc(C(C)(C)c2ccc(OCC(O)COC(=O)C(=C)C)cc2)cc1` (stereo not shown) [BisGMA, Bisphenol A glycerolate dimethacrylate], the initial viscosity [4] is listed as 1369 Pa·s.
With `C=C(C)C(=O)OCCO` [HEMA, 2-Hydroxyethyl methacrylate] the degradation ([5]; pH 1, 37° C.) was 69.0 (2.3) %, the degradation ([5]; pH 2, 37° C.) was 10.5 (0.7) % and the “inhibition of MMP-2” value [6] was “inhibition”. For the same compound, the “degraded monomers” value [1] was 52%, the water sorption ([2]; UDMA mixtures) was 102.8 μg/mm3 and the “degradation under aqueous conditions” value [3] was 8%.
`C=CC(=O)N(C)C` [DMAM, N.N-Dimethylacrylamide] showed a solubility ([2]; BisGMA co-polymerization) of 52.3 μg/mm3, a solubility ([2]; UDMA co-polymerization) of 44.3 μg/mm3 and a water sorption ([2]; UDMA mixtures) of 224.7 μg/mm3.
In the case of `C=C(C)C(=O)NC(C)(C)CO` [Monomer 2dMM, N-(1-hydroxy-2-methylpropan-2-yl)methacrylamide], the “degraded monomers” value [1] was 8%, the water sorption ([2]; UDMA mixtures) was 102.7 μg/mm3 and the “degradation under aqueous conditions” value [3] was “virtually no degradation”.
For `C=C(C)C(=O)OCCOC(=O)NCCC(C)CC(C)(C)CNC(=O)OCCOC(=O)C(=C)C` (stereo not shown) [UDMA, urethane dimethacrylate], the initial viscosity [4] is listed as 28 Pa·s.
In the case of `C=CC(=O)N(C)CCO` [HEM, N-(2-hydroxyethyl)-N-methylacrylamide], the water sorption ([2]; BisGMA co-polymerizations) was 38.7 μg/mm3 and the water sorption ([2]; UDMA mixtures) was 203.5 μg/mm3.
In the case of `C=C(C)C(=O)NCCO` [HEMAM, N-Hydroxyethyl methacrylamide], the degradation ([5]; pH 1, 37° C.) was 6.0 (0) %, the degradation ([5]; pH 2, 37° C.) was “did not show any significant amount of degradation products” and the “inhibition of MMP-2” value [6] was “inhibition”.
